Assay results as given in patent US5057520A, “7-(peptidylpyrolidinyl)naphthyridine antibacterial compounds” (Abbott Laboratories, priority 1989, dated 1991).
Converted amounts (≈) assume the structure as drawn. Where a name gives a salt, the structure may show the parent alone. Read-outs that look alike come from different tables or passages of the source.

Experiments:
Stap. Aureus NCTC 10649 = experiment: Acute mouse protection test; format: in vivo; conditions: mice infected i.p. with Stap. Aureus NCTC 10649, observed 7 days; for SC (ED50): SC dosing at 1 and 5 hours post-infection; for Oral (ED50): oral dosing at 1 and 5 hours post-infection
Stap. Aureus CMX 553 = experiment: Second in vitro MIC test, Brain Heart Infusion Broth (BHIB); format: cell-based
P. Aeruginosa A5007 = experiment: Acute mouse protection test; format: in vivo; conditions: mice infected i.p. with P. Aeruginosa A5007, observed 7 days; for SC (ED50): SC dosing at 1 and 5 hours post-infection; for Oral (ED50): oral dosing at 1 and 5 hours post-infection
Strep. pyogenes EES 61 = experiment: Second in vitro MIC test, Brain Heart Infusion Broth (BHIB); format: cell-based
E. Coli Juhl [1] = experiment: as above; format: cell-based
Ps. Aeruginosa A5007 = experiment: as above; format: cell-based
PSEUDOMONAS CEPACIA 296I = experiment: In vitro MIC, agar dilution (BHIA); format: cell-based; conditions: Burkholderia cepacia, read-out: MIC
[2] = system: MICROCOCCUS LUTEUS ATCC 9341; experiment: In vitro MIC, agar dilution (BHIA); format: cell-based; conditions: ATCC9341, read-out: MIC
E. Coli Juhl [3] = experiment: Acute mouse protection test; format: in vivo; conditions: mice infected i.p. with E. Coli JUHL, observed 7 days; for SC (ED50): SC dosing at 1 and 5 hours post-infection; for Oral (ED50): oral dosing at 1 and 5 hours post-infection
[4] = system: PSEUDOMONAS AERUGINOSA A5007; experiment: In vitro MIC, agar dilution (BHIA); format: cell-based; conditions: read-out: MIC
[5] = system: PROVIDENCIA STUARTII CMX 640; experiment: In vitro MIC, agar dilution (BHIA); format: cell-based; conditions: read-out: MIC
[6] = system: MICROCOCCUS LUTEUS ATCC 4698; experiment: In vitro MIC, agar dilution (BHIA); format: cell-based; conditions: ATCC4698, read-out: MIC
[7] = system: PSEUDOMONAS AERUGINOSA K799/WT; experiment: In vitro MIC, agar dilution (BHIA); format: cell-based; conditions: read-out: MIC
[8] = Conversion of prodrug to parent drug in whole blood at 37° C.; format: in vitro ADME, Dog
Experimental: (§1) An aqueous solution of prodrug (Z) is spiked into fresh whole blood containing sodium heparin as an anticoagulant. The sample is mixed gently by inversion and placed in a 37° waterbath. At selected time intervals an 0.5 ml aliquot of blood is removed and placed in a chilled 1.5 ml centrifuge tube (ice temperature). Samples are centrifuges at 13,000 rpm for two minutes to separate plasma. An 0.2 ml aliquot of the plasma sample is combined with 0.2 ml internal standard (7-(4-amino-2-methyl-1-pyrrolidinyl)-1-(2,4-difluorophenyl)-6-fluoro-1,4-d ihydro-4-oxo-1,8-naphthyridine-3-carboxylic acid in 0.2M sodium phosphate pH 7.2 buffer) and 6 mls CH2 Cl2 :EtoH (9:1 by volume). Samples are capped and shaken gently for 10 minutes. Samples are centrifuges at 2500 rpm for 10 minutes (4° C.). The aqueous layer is aspirated to waste and the organic layer is transferred to a conical centrifuge tube and evaporated to dryness with a stream of dry air and low heat ([…]). Samples are reconstituted with 0.2 ml mobile phase followed by vortexing. Samples are centrifuges at 2500 rpm for 10 minutes to separate precipitate. The supernatant is transferred to a WISP vial with plastic insert for HPLC analysis.

[9] = as above; format: in vitro ADME, Rat; conditions: conversion to parent drug in rat whole blood at 37° C.; seconds
Experimental: as §1

[10] = as above; format: in vitro ADME, Human; conditions: conversion to parent drug in human whole blood at 37° C.; minutes
Experimental: as §1

SMILES	SC (ED50) (Stap. Aureus NCTC 10649) [mg/kg/day]	Oral (ED50) (Stap. Aureus NCTC 10649) [mg/kg/day]	Solubility pH 7.4 [mg/ml]	MIC (Stap. Aureus CMX 553) [µg/mL]	SC (ED50) (P. Aeruginosa A5007) [mg/kg/day]	Oral (ED50) (P. Aeruginosa A5007) [mg/kg/day]	MIC (Strep. pyogenes EES 61) [µg/mL]	MIC (E. Coli Juhl [1]) [µg/mL]	MIC (Ps. Aeruginosa A5007) [µg/mL]	SC (ED50) (E. Coli Juhl [3]) [mg/kg/day]	Oral (ED50) (E. Coli Juhl [3]) [mg/kg/day]	Half Life Dog [8]	also measured
NC(Cc1ccc(O)cc1)C(=O)NC1CCN(c2nc3c(cc2F)c(=O)c(C(=O)O)cn3-c2ccc(F)cc2F)C1 (stereo not drawn) [Example 13]	0.4	1.7	0.06	12.5 (≈ 22 µM)	9.1	15.1	12.5 (≈ 22 µM)	12.5 (≈ 22 µM)	50 (≈ 88.1 µM)	–	–	–	–
CCC[C@H](NC(=O)CNC(=O)CN)C(=O)NC1CCN(c2nc3c(cc2F)c(=O)c(C(=O)O)cn3-c2ccc(F)cc2F)C1 (stereo partly drawn) [Example 30]	0.7	2.2	–	25 (≈ 40.5 µM)	4.8	3.3	100 (≈ 162 µM)	25 (≈ 40.5 µM)	> 100	–	–	–	–
NC1CCN(c2nc3c(cc2F)c(=O)c(C(=O)O)cn3-c2ccc(F)cc2F)C1 (stereo not drawn) [tosufloxacin, 7-(3-amino-1-pyrrolidinyl)-6-fluoro,1-(2,4-difluorophenyl)-1,4-dihydro-4-o xo-1,8-naphthyridine 3-carboxylic acid, reference compound]	0.6	1.5	–	–	> 25	6.2	–	–	–	0.2	0.9	–	MIC (PSEUDOMONAS CEPACIA 296I): 3.1 µg/mL (≈ 7.67 µM); MIC [2]: 1.56 µg/mL (≈ 3.86 µM); MIC [4]: 0.78 µg/mL (≈ 1.93 µM); MIC [5]: 1.56 µg/mL (≈ 3.86 µM); MIC [6]: 0.78 µg/mL (≈ 1.93 µM); MIC [7]: 0.78 µg/mL (≈ 1.93 µM)
CSCCC(N)C(=O)NC1CCN(c2nc3c(cc2F)c(=O)c(C(=O)O)cn3-c2ccc(F)cc2F)C1 (stereo not drawn) [Example 23]	0.5	1.5	–	3.12 (≈ 5.83 µM)	3.1	11.5	3.12 (≈ 5.83 µM)	3.12 (≈ 5.83 µM)	5.0 (≈ 9.34 µM)	–	–	99.1 s	–
CC(N)C(=O)NC1CCN(c2nc3c(cc2F)c(=O)c(C(=O)O)cn3-c2ccc(F)cc2F)C1 (stereo not drawn) [Example 17]	0.7	1.7	0.12	2.0 (≈ 4.21 µM)	5.7	12.5	–	0.5 (≈ 1.05 µM)	16 (≈ 33.7 µM)	0.4	2.0	97.0 s	–
CC(C)CC(N)C(=O)NC1CCN(c2nc3c(cc2F)c(=O)c(C(=O)O)cn3-c2ccc(F)cc2F)C1 (stereo not drawn) [Example 21]	0.5	2.4	0.14	1.56 (≈ 3.01 µM)	3.9	12.5	6.2 (≈ 12 µM)	1.56 (≈ 3.01 µM)	25 (≈ 48.3 µM)	–	–	55.8 s	–
O=C(O)c1cn(-c2ccc(F)cc2F)c2nc(N3CCC(NC(=O)C4CCCN4)C3)c(F)cc2c1=O (stereo not drawn) [Example 28]	0.5	3.2	–	1.56 (≈ 3.11 µM)	3.1	51.3	1.56 (≈ 3.11 µM)	1.56 (≈ 3.11 µM)	12.5 (≈ 24.9 µM)	–	–	41 m	–
CCC[C@H](NC(=O)[C@@H](N)CCC)C(=O)NC1CCN(c2nc3c(cc2F)c(=O)c(C(=O)O)cn3-c2ccc(F)cc2F)C1 (stereo partly drawn) [Example 3b, 7-(3-L-Norvaline-L-Norvalineamino-1-pyrrolidinyl)-1-(2,4-difluorophenyl)-6-fluoro-1,4-dihydro-4-oxo-1,8-naphthyridine-3-carboxylic acid hydrochloride]	0.5	1.8	–	–	6.2	9.1	12.5	–	–	0.5	4.0	–	Half Life Rat [9]: 0.858 min; Half Life Dog ([8]; conversion to parent drug in dog whole blood at 37° C., seconds): 86.5 s; Half Life Human [10]: 2.1 m
NCC(=O)NC1CCN(c2nc3c(cc2F)c(=O)c(C(=O)O)cn3-c2ccc(F)cc2F)C1 (stereo not drawn) [Example 7]	0.9	2.4	–	1.56 (≈ 3.38 µM)	4.2	11.4	0.78 (≈ 1.69 µM)	0.78 (≈ 1.69 µM)	12.5 (≈ 27.1 µM)	0.3	5.0	–	–
CC(N)C(=O)NC(Cc1ccccc1)C(=O)NC1CCN(c2nc3c(cc2F)c(=O)c(C(=O)O)cn3-c2ccc(F)cc2F)C1 (stereo not drawn) [Example 11]	0.7	2.0	0.59	16.0 (≈ 25.7 µM)	9.7	65.3	–	16 (≈ 25.7 µM)	128 (≈ 206 µM)	–	–	10.4 m	–
Cl.Cl.NCCCC[C@H](N)C(=O)NC1CCN(c2nc3c(cc2F)c(=O)c(C(=O)O)cn3-c2ccc(F)cc2F)C1 (stereo partly drawn) [Example 46, 7-(3-Lys-amino-1-pyrrolidinyl)-1-(2,4-difluorophenyl)-6-fluoro-1,4-dihydro-4-oxo-1,8-naphthyridine-3-carboxylic acid dihydrochloride]	0.7	3.4	–	100	4.5	12.5	100	–	> 100	–	–	46 m	–
